Results from ChEMBL document CHEMBL4765227, “Hit to lead optimization of a series of N-[4-(1,3-benzothiazol-2-yl)phenyl]acetamides as monoacylglycerol lipase inhibitors with potential anticancer activity” (Eur J Med Chem, 2016).

Assays:
Type in all cases: functional
A549 = assay: Growth inhibition of human A549/ATCC cells incubated for 48 hrs by sulforhodamine B assay
SNB-19 = assay: Growth inhibition of human SNB-19 cells incubated for 48 hrs by sulforhodamine B assay
CAKI-1 = assay: Growth inhibition of human CAKI-1 cells incubated for 48 hrs by sulforhodamine B assay
SF-268 = assay: Growth inhibition of human SF-268 cells incubated for 48 hrs by sulforhodamine B assay
SK-MEL-5 = assay: Growth inhibition of human SK-MEL-5 cells incubated for 48 hrs by sulforhodamine B assay
Malme-3M = assay: Growth inhibition of human Malme-3M cells incubated for 48 hrs by sulforhodamine B assay
ACHN = assay: Growth inhibition of human ACHN cells incubated for 48 hrs by sulforhodamine B assay
NCI-H23 = assay: Growth inhibition of human NCI-H23 cells incubated for 48 hrs by sulforhodamine B assay
SNB-75 = assay: Growth inhibition of human SNB-75 cells incubated for 48 hrs by sulforhodamine B assay
IGROV-1 = assay: Growth inhibition of human IGROV-1 cells incubated for 48 hrs by sulforhodamine B assay
NCI-H460 = assay: Growth inhibition of human NCI-H460 cells incubated for 48 hrs by sulforhodamine B assay
NCI-H522 = assay: Growth inhibition of human NCI-H522 cells incubated for 48 hrs by sulforhodamine B assay
HCT-116 = assay: Growth inhibition of human HCT-116 cells incubated for 48 hrs by sulforhodamine B assay
A498 = assay: Growth inhibition of human A498 cells incubated for 48 hrs by sulforhodamine B assay
EKVX = assay: Growth inhibition of human EKVX cells incubated for 48 hrs by sulforhodamine B assay
MDA-MB-435 = assay: Growth inhibition of human MDA-MB-435 cells incubated for 48 hrs by sulforhodamine B assay
UACC-257 = assay: Growth inhibition of human UACC-257 cells incubated for 48 hrs by sulforhodamine B assay
MOLT-4 = assay: Growth inhibition of human MOLT-4 cells incubated for 48 hrs by sulforhodamine B assay
UO-31 = assay: Growth inhibition of human UO-31 cells incubated for 48 hrs by sulforhodamine B assay
HOP-92 = assay: Growth inhibition of human HOP-92 cells incubated for 48 hrs by sulforhodamine B assay
DU-145 = assay: Growth inhibition of human DU-145 cells incubated for 48 hrs by sulforhodamine B assay
RXF 393 = assay: Growth inhibition of human RXF 393 cells incubated for 48 hrs by sulforhodamine B assay
MDA-MB-468 = assay: Growth inhibition of human MDA-MB-468 cells incubated for 48 hrs by sulforhodamine B assay
OVCAR-3 = assay: Growth inhibition of human OVCAR-3 cells incubated for 48 hrs by sulforhodamine B assay
MCF7 = assay: Growth inhibition of human MCF7 cells incubated for 48 hrs by sulforhodamine B assay
T47D = assay: Growth inhibition of human T47D cells incubated for 48 hrs by sulforhodamine B assay
HT-29 = assay: Growth inhibition of human HT-29 cells incubated for 48 hrs by sulforhodamine B assay
SK-OV-3 = assay: Growth inhibition of human SK-OV-3 cells incubated for 48 hrs by sulforhodamine B assay
SF-295 = assay: Growth inhibition of human SF-295 cells incubated for 48 hrs by sulforhodamine B assay
HCT-15 = assay: Growth inhibition of human HCT-15 cells incubated for 48 hrs by sulforhodamine B assay
BT-549 = assay: Growth inhibition of human BT-549 cells incubated for 48 hrs by sulforhodamine B assay
SK-MEL-28 = assay: Growth inhibition of human SK-MEL-28 cells incubated for 48 hrs by sulforhodamine B assay
PC-3 = assay: Growth inhibition of human PC-3 cells incubated for 48 hrs by sulforhodamine B assay
K562 = assay: Growth inhibition of human K562 cells incubated for 48 hrs by sulforhodamine B assay
OVCAR-5 = assay: Growth inhibition of human OVCAR-5 cells incubated for 48 hrs by sulforhodamine B assay
[1] = read-out: LC50 (the source's name)

`O=C(CNc1c(Cl)cccc1Cl)Nc1ccc(-c2nc3ccccc3s2)cc1` was tested, and the GI50 (A549) was 3.65 µM, the TGI (A549) was 16.9 µM and the CC50 (A549; [1]) was greater than 100 µM. For the same compound, the GI50 (SNB-19) was 2.5 µM, the LC50 (SNB-19) was 80 µM and the TGI (SNB-19) was 9.28 µM. It also gave a GI50 (CAKI-1) of 2.3 µM, an LC50 (concentration killing 50% of cells) (CAKI-1) of 27.4 µM and a TGI (CAKI-1) of 6.71 µM. It also gave a GI50 (SF-268) of 1.99 µM, an LC50 (SF-268) of 9.52 µM and a TGI (SF-268) of 4.35 µM. For the same compound, the GI50 (SK-MEL-5) was 1.43 µM, the LC50 (50% lethal concentration) (SK-MEL-5) was 5.88 µM and the TGI (SK-MEL-5) was 2.9 µM. The GI50 (Malme-3M) was 1.71 µM, the TGI (Malme-3M) was 3.43 µM and the CC50 (Malme-3M; [1]) was 6.88 µM. For the same compound, the GI50 (ACHN) was 1.82 µM, the LC50 (ACHN) was 6.63 µM and the TGI (ACHN) was 3.47 µM. For the same compound, the GI50 (NCI-H23) was 2 µM, the LC50 (lethal concentration 50%) (NCI-H23) was 17.1 µM and the TGI (NCI-H23) was 4.59 µM. It also gave a GI50 (SNB-75) of 2.97 µM, an LC50 (concentration killing 50% of cells) (SNB-75) of 39.2 µM and a TGI (SNB-75) of 15.4 µM. It also gave a GI50 (IGROV-1) of 1.92 µM, a TGI (IGROV-1) of 4.33 µM and a CC50 (IGROV-1; [1]) of 9.73 µM. It also gave a GI50 (NCI-H460) of 3.36 µM, a TGI (NCI-H460) of 12.4 µM and a CC50 (NCI-H460; [1]) of 43 µM. For the same compound, the GI50 (NCI-H522) was 1.29 µM, the LC50 (50% lethal concentration) (NCI-H522) was 7.58 µM and the TGI (NCI-H522) was 3.13 µM. It also gave a GI50 (HCT-116) of 2.14 µM, a TGI (HCT-116) of 6.14 µM and a CC50 (HCT-116; [1]) of 29 µM. It also gave a GI50 (A498) of 13.8 µM, a TGI (A498) of 26.9 µM and a CC50 (A498; [1]) of 52.4 µM. It also gave a GI50 (EKVX) of 8.29 µM, an LC50 (EKVX) of 55.2 µM and a TGI (EKVX) of 22.6 µM. It also gave a GI50 (MDA-MB-435) of 2.6 µM, an LC50 (MDA-MB-435) of 99.6 µM and a TGI (MDA-MB-435) of 11.3 µM. For the same compound, the GI50 (UACC-257) was 3.61 µM, the LC50 (UACC-257) was 63.1 µM and the TGI (UACC-257) was 11.9 µM. The GI50 (MOLT-4) was 1.05 µM, the LC50 (MOLT-4) was greater than 100 µM and the TGI (MOLT-4) was 7.43 µM. The GI50 (UO-31) was 1.5 µM, the LC50 (concentration killing 50% of cells) (UO-31) was 8.5 µM and the TGI (UO-31) was 3.57 µM. For the same compound, the GI50 (HOP-92) was 1.88 µM, the LC50 (concentration killing 50% of cells) (HOP-92) was 26.7 µM and the TGI (HOP-92) was 6.3 µM. For the same compound, the GI50 (DU-145) was 3.33 µM, the LC50 (concentration killing 50% of cells) (DU-145) was 32.2 µM and the TGI (DU-145) was 10.4 µM. For the same compound, the GI50 (RXF 393) was 1.63 µM, the LC50 (concentration killing 50% of cells) (RXF 393) was 7.27 µM and the TGI (RXF 393) was 3.44 µM. The GI50 (MDA-MB-468) was 0.0251 µM, the TGI (MDA-MB-468) was 0.137 µM and the CC50 (MDA-MB-468; [1]) was 4.33 µM. It also gave a GI50 (OVCAR-3) of 1.81 µM, an LC50 (OVCAR-3) of 5.79 µM and a TGI (OVCAR-3) of 3.24 µM. It also gave a GI50 (MCF7) of 0.0371 µM, an LC50 (MCF7) of 39.8 µM and a TGI (MCF7) of 2.49 µM. It also gave a GI50 (T47D) of 1.86 µM, an LC50 (concentration killing 50% of cells) (T47D) greater than 100 µM and a TGI (T47D) of 5.44 µM. It also gave a GI50 (HT-29) of 2.01 µM, an LC50 (HT-29) of 8.66 µM and a TGI (HT-29) of 4.17 µM. It also gave a GI50 (SK-OV-3) of 5.84 µM, an LC50 (concentration killing 50% of cells) (SK-OV-3) greater than 100 µM and a TGI (SK-OV-3) of 50.9 µM. For the same compound, the GI50 (SF-295) was 15.3 µM, the LC50 (concentration causing 50% net cell kill) (SF-295) was 60.5 µM and the TGI (SF-295) was 30.4 µM. For the same compound, the GI50 (HCT-15) was 1.58 µM, the TGI (HCT-15) was 4.5 µM and the CC50 (HCT-15; [1]) was 53.7 µM. For the same compound, the GI50 (BT-549) was 1.7 µM, the LC50 (concentration killing 50% of cells) (BT-549) was 44.4 µM and the TGI (BT-549) was 5.39 µM. The GI50 (SK-MEL-28) was 1.8 µM, the LC50 (SK-MEL-28) was 7.47 µM and the TGI (SK-MEL-28) was 3.67 µM. The GI50 (PC-3) was 1.73 µM, the TGI (PC-3) was 3.47 µM and the CC50 (PC-3; [1]) was 6.98 µM. For the same compound, the GI50 (K562) was 2.86 µM, the LC50 (K562) was greater than 100 µM and the TGI (K562) was 11.5 µM. The GI50 (OVCAR-5) was 1.92 µM, the LC50 (concentration killing 50% of cells) (OVCAR-5) was 9.53 µM and the TGI (OVCAR-5) was 4.28 µM.
